Results on eight molecules are retold here after PubChem BioAssay (NCI).

By TGI is commonly meant the concentration giving total growth inhibition. High values mean less potent growth arrest, low ones more potent growth arrest.

Molecules are shown by their SMILES.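 Where inhibition never reached the appropriate level, the endpoint shown equals the highest concentration tested. Otherwise, values were interpolated linearly from a five-concentration, 48-hour dose response in 96-well plates. At the TGI there is no net growth.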 Some results are limits rather than exact numbers.

Some test systems named below: SR leukemia; LOX IMVI melanoma; UO-31 renal; HCC-2998 colon; HOP-62 NSCLC; NCI-H460 lung; BT-549 breast; SF-268 CNS; COLO 205 colon; HS 578T breast; CAKI-1 renal; MDA-N; EKVX NSCLC; NCI-H23 lung; NCI/ADR-RES ovarian; HOP-92 NSCLC; SK-OV-3 ovarian; MDA-MB-435; TK-10 renal; SF-539 CNS.
What all share (test): DTP human tumour cell line panel, 48 h

On to `O=CC(O)C(O)C1OC(=O)c2cc(O)c(O)c(O)c2C2=C(O)C(O)=C3OC(=O)c4c(c(O)c(O)c5c4C3C2C(=O)O5)-c2c(cc(O)c(O)c2O)C(=O)OCC1O` (stereo unspecified), for which the TGI in the experiment on SR leukemia is 63 µM; with LOX IMVI melanoma it was 31.9 µM; in the experiment on UO-31 renal it was above 100 µM; with HCC-2998 colon, above 100 µM; with HOP-62 NSCLC, above 100 µM; in the experiment on NCI-H460 lung it was above 100 µM. Also, the TGI was above 100 µM with BT-549 breast; above 100 µM with SF-268 CNS; above 100 µM in the experiment on COLO 205 colon; above 100 µM in the experiment with HS 578T breast; 37.7 µM with CAKI-1 renal; 41.1 µM in the experiment on MDA-N. The TGI is above 100 µM in the experiment with EKVX NSCLC; above 100 µM with NCI-H23 lung; above 100 µM in the experiment with NCI/ADR-RES ovarian; 98.2 µM in the experiment on HOP-92 NSCLC; above 100 µM with SK-OV-3 ovarian; 34.1 µM with MDA-MB-435.

Regarding `O=C(Cn1c2c(c3ccccc31)CCCC2)N1CCCCC1`, the TGI in the experiment with SR leukemia, in the experiment with LOX IMVI melanoma, with UO-31 renal, in the experiment with HCC-2998 colon, with HOP-62 NSCLC and in the experiment on NCI-H460 lung was above 100 µM each time. In addition, the TGI with BT-549 breast, with COLO 205 colon, with TK-10 renal, in the experiment on HS 578T breast, in the experiment with SF-539 CNS and in the experiment on CAKI-1 renal was above 100 µM throughout. For the same molecule, the TGI in the experiment with MDA-N, in the experiment on EKVX NSCLC, with NCI-H23 lung, in the experiment with NCI/ADR-RES ovarian, in the experiment with HOP-92 NSCLC and with SK-OV-3 ovarian was above 100 µM throughout. Moreover, the TGI in the experiment with MDA-MB-435 was above 100 µM.

Consider `O=[N+]([O-])c1cccc(-c2cn3c(n2)Cc2ccccc2C3)c1`, for which the TGI in the experiment on SR leukemia, with LOX IMVI melanoma, with UO-31 renal, with HOP-62 NSCLC, in the experiment on NCI-H460 lung and with BT-549 breast was above 100 µM throughout. For the same molecule, the TGI in the experiment on SF-268 CNS is above 100 µM; in the experiment with COLO 205 colon, above 100 µM; in the experiment with TK-10 renal, above 100 µM; in the experiment on HS 578T breast it was above 100 µM; in the experiment with SF-539 CNS, above 100 µM; in the experiment on CAKI-1 renal, 58.2 µM. Also, the TGI in the experiment with MDA-N, with EKVX NSCLC, in the experiment on NCI-H23 lung, in the experiment with NCI/ADR-RES ovarian, with HOP-92 NSCLC and with SK-OV-3 ovarian was above 100 µM in each case. For the same molecule, in the experiment on MDA-MB-435, the TGI was above 100 µM.

Take `Nc1n[nH]c2c(C(=O)Nc3ccc(Cl)cc3)c(N)n(N)c(=O)c12`: the TGI in the experiment with SR leukemia, in the experiment with LOX IMVI melanoma, with UO-31 renal, in the experiment on HCC-2998 colon, in the experiment with NCI-H460 lung and in the experiment on BT-549 breast was above 100 µM in each case. Further, the TGI with SF-268 CNS, in the experiment with COLO 205 colon, in the experiment with TK-10 renal, in the experiment on HS 578T breast, with SF-539 CNS and in the experiment with CAKI-1 renal was above 100 µM each time. Besides, the TGI in the experiment with MDA-N, in the experiment on EKVX NSCLC, with NCI-H23 lung, with NCI/ADR-RES ovarian, in the experiment on SK-OV-3 ovarian and with MDA-MB-435 was above 100 µM each time.

Turning to `O=c1[nH]c2ccc(Cl)cc2o1`, the TGI in the experiment with SR leukemia, in the experiment on LOX IMVI melanoma, in the experiment with UO-31 renal, in the experiment with HOP-62 NSCLC, with NCI-H460 lung and with BT-549 breast was above 100 µM throughout. Moreover, the TGI in the experiment on SF-268 CNS, in the experiment on COLO 205 colon, in the experiment with TK-10 renal, in the experiment on HS 578T breast, in the experiment on SF-539 CNS and in the experiment with CAKI-1 renal was above 100 µM each time. The TGI with MDA-N, in the experiment with EKVX NSCLC, in the experiment with NCI-H23 lung, in the experiment on NCI/ADR-RES ovarian, in the experiment on HOP-92 NSCLC and with SK-OV-3 ovarian was above 100 µM each time. This molecule also gave a TGI in the experiment on MDA-MB-435 above 100 µM.

As for `Cc1ccc2c(c1)C=CC1(O2)N(c2ccccc2)C(=S)OC1(C)C` (stereo unspecified), the TGI in the experiment with SR leukemia was 78.9 µM; in the experiment with LOX IMVI melanoma it was above 100 µM; with UO-31 renal, above 100 µM; in the experiment with HCC-2998 colon, above 100 µM; with HOP-62 NSCLC, above 100 µM; in the experiment with NCI-H460 lung, above 100 µM. In addition, the TGI with BT-549 breast, in the experiment with SF-268 CNS, in the experiment with COLO 205 colon, with TK-10 renal, with HS 578T breast and in the experiment with CAKI-1 renal was above 100 µM in each case. The total growth inhibition concentration (TGI) with MDA-N is 94.3 µM; in the experiment on EKVX NSCLC, above 100 µM; in the experiment on NCI-H23 lung it was above 100 µM; in the experiment with NCI/ADR-RES ovarian it was above 100 µM; in the experiment on HOP-92 NSCLC it was above 100 µM; in the experiment with SK-OV-3 ovarian, above 100 µM. In the experiment with MDA-MB-435, this molecule registered a TGI above 100 µM.

Consider `CC1(C)OC[C@H](COCOP2(=O)Oc3ccc4ccccc4c3-c3c(ccc4ccccc34)O2)O1`, for which the TGI was 45.6 µM in the experiment with SR leukemia; 32.6 µM with UO-31 renal; 31.3 µM in the experiment on HCC-2998 colon; 40 µM in the experiment on HOP-62 NSCLC; 33.3 µM in the experiment on NCI-H460 lung; 31 µM with BT-549 breast. Besides, the TGI with SF-268 CNS is 39.1 µM; in the experiment with TK-10 renal, 35.6 µM; in the experiment on HS 578T breast it was above 100 µM; with SF-539 CNS, 39.8 µM; with MDA-N, 26.8 µM; with NCI-H23 lung it was 29.6 µM. In addition, the TGI was determined as 36 µM with NCI/ADR-RES ovarian, 28.5 µM with HOP-92 NSCLC, 73.3 µM with SK-OV-3 ovarian and 26.5 µM with MDA-MB-435.

`COc1cccc(/C=C2\SC(=S)N(/C=C3\C(=O)Oc4ccccc4C3=O)C2=O)c1O`: the total growth inhibition concentration (TGI) was above 100 µM in the experiment with SR leukemia; above 100 µM in the experiment on LOX IMVI melanoma; 48.2 µM in the experiment with UO-31 renal; 87 µM in the experiment with HCC-2998 colon; above 100 µM in the experiment with HOP-62 NSCLC; above 100 µM with NCI-H460 lung. The total growth inhibition concentration (TGI) was 55.6 µM in the experiment with BT-549 breast; above 100 µM in the experiment on SF-268 CNS; above 100 µM in the experiment with COLO 205 colon; 82.3 µM with HS 578T breast; 83.2 µM in the experiment with SF-539 CNS; above 100 µM in the experiment on CAKI-1 renal. For the same molecule, the TGI in the experiment on MDA-N is above 100 µM; in the experiment on EKVX NSCLC, above 100 µM; in the experiment with NCI-H23 lung it was above 100 µM; in the experiment on NCI/ADR-RES ovarian, above 100 µM; in the experiment with SK-OV-3 ovarian, above 100 µM; with MDA-MB-435, 75.6 µM.
